Assay results reported in ChEMBL document CHEMBL1201862, “PubChem BioAssay data set” (2004).
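Tested at 5 concentrations; 48 h exposure; 96-well plates; endpoints linearly interpolated, else capped at highest concentration. The concentration for 50% growth inhibition is given as GI50.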 Activity calls are given as the source filed them. Cut-off read from the data, not from the text of the source: active = GI50 up to about 1.1 µM and inactive = higher.

Tests used:
Assay in all cases: inhibition of tumour cell growth, NCI panel, 48 h
SK-MEL-5 = system: SK-MEL-5
786-0 = system: 786-0
NCI-H23 = system: NCI-H23
A498 = system: A498
NCI-H226 = system: NCI-H226
MDA-MB-231 = system: MDA-MB-231
Hs-578T = system: Hs-578T
HT-29 = system: HT-29
CCRF-CEM = system: CCRF-CEM
TK-10 = system: TK-10
SNB-75 = system: SNB-75
EKVX = system: EKVX
OVCAR-5 = system: OVCAR-5
SK-MEL-28 = system: SK-MEL-28
SK-OV-3 = system: SK-OV-3
UO-31 = system: UO-31
M14 = system: M14
ACHN = system: ACHN
MDA-MB-435 = system: MDA-MB-435
SN12C = system: SN12C
COLO 205 = system: COLO 205
HOP-62 = system: HOP-62
SK-MEL-2 = system: SK-MEL-2
SNB-19 = system: SNB-19
SF-539 = system: SF-539
NCI-H460 = system: NCI-H460
NCI-H522 = system: NCI-H522
HOP-92 = system: HOP-92
Malme-3M = system: Malme-3M
UACC-62 = system: UACC-62
DU-145 = system: DU-145
CAKI-1 = system: CAKI-1
MDA-N = system: MDA-N
SF-268 = system: SF-268
A549 = system: A549
SF-295 = system: SF-295
UACC-257 = system: UACC-257
BT-549 = system: BT-549
RXF 393 = system: RXF 393
HCT-116 = system: HCT-116
HL-60 = system: HL-60
MCF7 = system: MCF7
OVCAR-3 = system: OVCAR-3
SW-620 = system: SW-620
MOLT-4 = system: MOLT-4
IGROV-1 = system: IGROV-1
T47D = system: T47D
RPMI-8226 = system: RPMI-8226
KM12 = system: KM12
HCC 2998 = system: HCC 2998
NCI/ADR-RES = system: NCI/ADR-RES
SR = system: SR
PC-3 = system: PC-3
U-251 = system: U-251
HCT-15 = system: HCT-15
LOX IMVI = system: LOX IMVI
OVCAR-8 = system: OVCAR-8
OVCAR-4 = system: OVCAR-4
K562 = system: K562

Compound: C/C(=N\NC(N)=S)C(CN1CCCCC1)C(C1=C(O)c2ccccc2OC1)c1ccccc1 (configuration not stated)
- GI50 (SK-MEL-5): > 100 µM (inactive)
- GI50 (786-0): > 100 µM (inactive)
- GI50 (NCI-H23): > 100 µM (inactive)
- GI50 (A498): > 100 µM (inactive)
- GI50 (NCI-H226): > 100 µM (inactive)
- GI50 (MDA-MB-231): > 100 µM (inactive)
- GI50 (Hs-578T): > 100 µM (inactive)
- GI50 (HT-29): > 100 µM (inactive)
- GI50 (CCRF-CEM): 61.1 µM (inactive)
- GI50 (TK-10): > 100 µM (inactive)
- GI50 (SNB-75): > 100 µM (inactive)
- GI50 (EKVX): > 100 µM (inactive)
- GI50 (OVCAR-5): > 100 µM (inactive)
- GI50 (SK-MEL-28): > 100 µM (inactive)
- GI50 (SK-OV-3): > 100 µM (inactive)
- GI50 (UO-31): > 100 µM (inactive)
- GI50 (M14): > 100 µM (inactive)
- GI50 (ACHN): > 100 µM (inactive)
- GI50 (MDA-MB-435): > 100 µM (inactive)
- GI50 (SN12C): > 100 µM (inactive)
- GI50 (COLO 205): > 100 µM (inactive)
- GI50 (HOP-62): 41 µM (inactive)
- GI50 (SK-MEL-2): > 100 µM (inactive)
- GI50 (SNB-19): > 100 µM (inactive)
- GI50 (SF-539): > 100 µM (inactive)
- GI50 (NCI-H460): > 100 µM (inactive)
- GI50 (NCI-H522): > 100 µM (inactive)
- GI50 (HOP-92): 22.5 µM (inactive)
- GI50 (Malme-3M): > 100 µM (inactive)
- GI50 (UACC-62): > 100 µM (inactive)
- GI50 (DU-145): > 100 µM (inactive)
- GI50 (CAKI-1): > 100 µM (inactive)
- GI50 (MDA-N): > 100 µM (inactive)
- GI50 (SF-268): > 100 µM (inactive)
- GI50 (A549): > 100 µM (inactive)
- GI50 (SF-295): > 100 µM (inactive)
- GI50 (UACC-257): > 100 µM (inactive)
- GI50 (BT-549): > 100 µM (inactive)
- GI50 (RXF 393): > 100 µM (inactive)
- GI50 (HCT-116): > 100 µM (inactive)
- GI50 (HL-60): 36.1 µM (inactive)
- GI50 (MCF7): > 100 µM (inactive)
- GI50 (OVCAR-3): 82.4 µM (inactive)
- GI50 (SW-620): > 100 µM (inactive)
- GI50 (MOLT-4): 64 µM (inactive)
- GI50 (IGROV-1): > 100 µM (inactive)
- GI50 (T47D): 79.6 µM (inactive)
- GI50 (RPMI-8226): 35.2 µM (inactive)
- GI50 (KM12): > 100 µM (inactive)
- GI50 (HCC 2998): > 100 µM (inactive)
- GI50 (NCI/ADR-RES): > 100 µM (inactive)
- GI50 (SR): > 100 µM (inactive)
- GI50 (PC-3): > 100 µM (inactive)
- GI50 (U-251): > 100 µM (inactive)
- GI50 (HCT-15): > 100 µM
- GI50 (LOX IMVI): > 100 µM (inactive)
- GI50 (OVCAR-8): > 100 µM (inactive)
- GI50 (OVCAR-4): 83 µM (inactive)

Compound: CSCCC(N)C(=O)NCCNc1ccc(NCCNC(=O)C(N)CCSC)c2c1C(=O)c1ccccc1C2=O (configuration not stated)
- GI50 (SK-MEL-5): 3.48 µM (inactive)
- GI50 (786-0): 0.308 µM (active)
- GI50 (NCI-H23): 1.05 µM (active)
- GI50 (A498): 1.72 µM (inactive)
- GI50 (NCI-H226): 1.08 µM (active)
- GI50 (MDA-MB-231): 1.16 µM (inactive)
- GI50 (Hs-578T): 1.02 µM (active)
- GI50 (HT-29): 0.535 µM (active)
- GI50 (CCRF-CEM): 0.528 µM (active)
- GI50 (TK-10): 2.09 µM (inactive)
- GI50 (SNB-75): 1.57 µM (inactive)
- GI50 (EKVX): 2.46 µM (inactive)
- GI50 (OVCAR-5): 1.99 µM (inactive)
- GI50 (SK-MEL-28): 1.75 µM (inactive)
- GI50 (SK-OV-3): 2.62 µM (inactive)
- GI50 (UO-31): 1.41 µM (inactive)
- GI50 (M14): 3.38 µM (inactive)
- GI50 (ACHN): 0.456 µM (active)
- GI50 (MDA-MB-435): 1.86 µM (inactive)
- GI50 (SN12C): 0.374 µM (active)
- GI50 (COLO 205): 1.16 µM (inactive)
- GI50 (HOP-62): 0.783 µM (active)
- GI50 (SK-MEL-2): 3.41 µM (inactive)
- GI50 (SNB-19): 0.927 µM (active)
- GI50 (SF-539): 0.973 µM (active)
- GI50 (NCI-H460): 0.351 µM (active)
- GI50 (NCI-H522): 0.199 µM (active)
- GI50 (HOP-92): 1.1 µM (active)
- GI50 (Malme-3M): 1.89 µM (inactive)
- GI50 (UACC-62): 1.23 µM (inactive)
- GI50 (DU-145): 0.798 µM (active)
- GI50 (CAKI-1): 1.03 µM (active)
- GI50 (MDA-N): 1.69 µM (inactive)
- GI50 (SF-268): 0.659 µM (active)
- GI50 (A549): 0.579 µM (active)
- GI50 (SF-295): 1.57 µM (inactive)
- GI50 (UACC-257): 3.25 µM (inactive)
- GI50 (BT-549): 1.48 µM (inactive)
- GI50 (RXF 393): 1.91 µM (inactive)
- GI50 (HCT-116): 0.424 µM (active)
- GI50 (HL-60): 0.746 µM (active)
- GI50 (MCF7): 0.409 µM (active)
- GI50 (OVCAR-3): 3.03 µM (inactive)
- GI50 (SW-620): 1 µM (active)
- GI50 (MOLT-4): 0.123 µM (active)
- GI50 (IGROV-1): 2.12 µM (inactive)
- GI50 (T47D): 2.5 µM (inactive)
- GI50 (RPMI-8226): 1.35 µM (inactive)
- GI50 (KM12): 1.27 µM (inactive)
- GI50 (HCC 2998): 0.716 µM (active)
- GI50 (NCI/ADR-RES): 2.21 µM (inactive)
- GI50 (SR): 0.197 µM (active)
- GI50 (PC-3): 1.84 µM (inactive)
- GI50 (U-251): 0.6 µM (active)
- GI50 (HCT-15): 1.22 µM
- GI50 (LOX IMVI): 0.624 µM (active)
- GI50 (OVCAR-8): 0.441 µM (active)
- GI50 (K562): 1.42 µM (inactive)
- GI50 (OVCAR-4): 1.67 µM (inactive)
